pIC50: −log10 of the molar value.

The target of one experiment is hNav1.7 (Homo sapiens, UniProt Q15858). In words: cell-based. Particulars: Table 12; PatchXpress, tonic block; read-out: PX hNav1.7 Tonic IC50. The format is cell-based.
Sequence of hNav1.7 (Q15858 whole entry): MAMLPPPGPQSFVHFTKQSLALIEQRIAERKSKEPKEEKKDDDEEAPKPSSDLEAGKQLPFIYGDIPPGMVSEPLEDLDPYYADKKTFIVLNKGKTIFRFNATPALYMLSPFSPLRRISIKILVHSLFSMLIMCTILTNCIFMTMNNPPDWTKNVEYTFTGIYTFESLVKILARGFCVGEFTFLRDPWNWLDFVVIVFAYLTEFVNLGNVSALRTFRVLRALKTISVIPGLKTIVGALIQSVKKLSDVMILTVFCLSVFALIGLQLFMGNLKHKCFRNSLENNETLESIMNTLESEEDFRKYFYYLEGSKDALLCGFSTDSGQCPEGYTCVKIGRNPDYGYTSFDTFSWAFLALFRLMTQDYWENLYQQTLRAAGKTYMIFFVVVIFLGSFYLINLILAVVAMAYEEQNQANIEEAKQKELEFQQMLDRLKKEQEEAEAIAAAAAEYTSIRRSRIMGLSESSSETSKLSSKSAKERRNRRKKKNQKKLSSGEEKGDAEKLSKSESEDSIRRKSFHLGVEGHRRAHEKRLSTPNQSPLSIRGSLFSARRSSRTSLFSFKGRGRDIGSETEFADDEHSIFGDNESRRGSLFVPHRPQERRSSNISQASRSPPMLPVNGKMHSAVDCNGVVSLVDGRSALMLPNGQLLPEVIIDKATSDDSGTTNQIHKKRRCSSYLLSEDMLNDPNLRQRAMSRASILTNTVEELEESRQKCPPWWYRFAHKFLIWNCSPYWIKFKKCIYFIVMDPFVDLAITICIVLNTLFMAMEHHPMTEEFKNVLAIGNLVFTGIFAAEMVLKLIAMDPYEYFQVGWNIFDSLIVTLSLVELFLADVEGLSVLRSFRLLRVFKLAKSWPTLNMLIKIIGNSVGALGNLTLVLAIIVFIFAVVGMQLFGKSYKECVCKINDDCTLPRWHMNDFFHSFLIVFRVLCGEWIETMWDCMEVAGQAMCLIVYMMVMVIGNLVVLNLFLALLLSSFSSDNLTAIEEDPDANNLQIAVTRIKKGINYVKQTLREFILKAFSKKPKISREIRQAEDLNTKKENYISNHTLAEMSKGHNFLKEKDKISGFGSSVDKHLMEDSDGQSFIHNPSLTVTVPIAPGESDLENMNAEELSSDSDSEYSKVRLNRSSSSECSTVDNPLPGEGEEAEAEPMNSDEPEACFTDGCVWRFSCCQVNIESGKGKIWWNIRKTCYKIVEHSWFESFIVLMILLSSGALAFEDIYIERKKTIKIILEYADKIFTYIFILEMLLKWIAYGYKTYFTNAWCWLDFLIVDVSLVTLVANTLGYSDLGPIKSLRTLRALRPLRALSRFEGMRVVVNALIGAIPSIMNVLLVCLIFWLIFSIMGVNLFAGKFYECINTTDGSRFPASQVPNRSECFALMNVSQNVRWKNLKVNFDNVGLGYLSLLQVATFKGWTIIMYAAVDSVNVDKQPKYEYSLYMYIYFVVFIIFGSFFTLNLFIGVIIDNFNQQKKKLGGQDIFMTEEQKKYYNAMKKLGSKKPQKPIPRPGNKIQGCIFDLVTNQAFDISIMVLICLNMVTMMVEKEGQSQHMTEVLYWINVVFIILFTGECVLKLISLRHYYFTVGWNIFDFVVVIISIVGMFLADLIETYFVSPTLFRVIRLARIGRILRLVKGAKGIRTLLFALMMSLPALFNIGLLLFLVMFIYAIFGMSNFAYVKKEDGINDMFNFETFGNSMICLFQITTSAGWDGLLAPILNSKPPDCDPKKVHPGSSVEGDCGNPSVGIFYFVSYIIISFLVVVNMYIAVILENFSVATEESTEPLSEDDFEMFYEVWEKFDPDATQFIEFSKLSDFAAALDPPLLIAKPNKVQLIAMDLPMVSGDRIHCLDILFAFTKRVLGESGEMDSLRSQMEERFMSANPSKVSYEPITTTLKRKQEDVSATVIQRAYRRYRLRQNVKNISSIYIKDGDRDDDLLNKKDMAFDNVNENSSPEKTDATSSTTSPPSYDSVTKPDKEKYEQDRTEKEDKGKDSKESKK
Take `C#CC[C@H](N)C(=O)N[C@@H](Cc1ccc(O)cc1)C(=O)N[C@H]1CSSC[C@@H]2NC(=O)[C@@H]3CSSC[C@@H](C(=O)N[C@@H](CCCNC(=N)N)C(=O)N[C@@H](CCCCN)C(=O)NCC(=O)N[C@H](C(N)=O)[C@@H](C)CC)NC(=O)[C@H](Cc4c[nH]c5ccccc45)NC(=O)[C@H](CC(C)C)NC(=O)[C@H](CCCCN)NC(=O)[C@H](CSSC[C@H](NC(=O)[C@H]([C@@H](C)O)NC(=O)[C@H](Cc4c[nH]c5ccccc45)NC(=O)[C@H](CCCC)NC(=O)[C@H](Cc4c[nH]c5ccccc45)NC(=O)[C@H](CCCCN)NC(=O)[C@H](CCC(N)=O)NC1=O)C(=O)N[C@@H](CC(=O)O)C(=O)N[C@@H](CO)C(=O)N[C@@H](CCCCN)C(=O)N[C@@H](CCCNC(=N)N)C(=O)N[C@@H](C)C(=O)N3)NC(=O)[C@H](CCCNC(=N)N)NC(=O)[C@H](CC(C)C)NC(=O)CNC(=O)[C@H](CCC(=O)O)NC2=O` [compound 651]: the negative logarithm of the IC50 (pIC50) was 8.50.

Regarding `C#CC[C@H](N)C(=O)N[C@@H](Cc1ccc(O)cc1)C(=O)N[C@H]1CSSC[C@@H]2NC(=O)[C@@H]3CSSC[C@@H](C(=O)N[C@@H](CCCNC(=N)N)C(=O)N[C@@H](CCCCN)C(=O)N[C@@H](Cc4c[nH]cn4)C(=O)N[C@H](C(N)=O)[C@@H](C)CC)NC(=O)[C@H](Cc4c[nH]c5ccccc45)NC(=O)[C@H](CC(C)C)NC(=O)[C@H](CCCCN)NC(=O)[C@H](CSSC[C@H](NC(=O)[C@H]([C@@H](C)O)NC(=O)[C@H](Cc4c[nH]c5ccccc45)NC(=O)[C@H](CCCC)NC(=O)[C@H](Cc4c[nH]c5ccccc45)NC(=O)[C@H](CCCCN)NC(=O)[C@H](CCC(N)=O)NC1=O)C(=O)N[C@@H](CC(=O)O)C(=O)N[C@@H](CO)C(=O)N[C@@H](CCCCN)C(=O)N[C@@H](CCCNC(=N)N)C(=O)N[C@@H](C)C(=O)N3)NC(=O)[C@H](CCCNC(=N)N)NC(=O)[C@H](CC(C)C)NC(=O)CNC(=O)[C@H](CCC(=O)O)NC2=O` [compound 652], the pIC50 is 9.43.

With `C#CC[C@H](N)C(=O)N[C@@H](Cc1ccc(O)cc1)C(=O)N[C@H]1CSSC[C@@H]2NC(=O)[C@@H]3CSSC[C@@H](C(=O)N[C@@H](CCCNC(=N)N)C(=O)N[C@@H](CCCCN)C(=O)N[C@@H](CCCC)C(=O)N[C@H](C(N)=O)[C@@H](C)CC)NC(=O)[C@H](Cc4c[nH]c5ccccc45)NC(=O)[C@H](CC(C)C)NC(=O)[C@H](CCCCN)NC(=O)[C@H](CSSC[C@H](NC(=O)[C@H]([C@@H](C)O)NC(=O)[C@H](Cc4c[nH]c5ccccc45)NC(=O)[C@H](CCCC)NC(=O)[C@H](Cc4c[nH]c5ccccc45)NC(=O)[C@H](CCCCN)NC(=O)[C@H](CCC(N)=O)NC1=O)C(=O)N[C@@H](CC(=O)O)C(=O)N[C@@H](CO)C(=O)N[C@@H](CCCCN)C(=O)N[C@@H](CCCNC(=N)N)C(=O)N[C@@H](C)C(=O)N3)NC(=O)[C@H](CCCNC(=N)N)NC(=O)[C@H](CC(C)C)NC(=O)CNC(=O)[C@H](CCC(=O)O)NC2=O` [compound 664], the pIC50 is 9.47.

`C#CC[C@H](N)C(=O)N[C@@H](Cc1ccc(O)cc1)C(=O)N[C@H]1CSSC[C@@H]2NC(=O)[C@@H]3CSSC[C@@H](C(=O)N[C@@H](CCCNC(=N)N)C(=O)N[C@@H](CCCCN)C(=O)N[C@H](C(=O)N[C@H](C(N)=O)[C@@H](C)CC)[C@@H](C)CC)NC(=O)[C@H](Cc4c[nH]c5ccccc45)NC(=O)[C@H](CC(C)C)NC(=O)[C@H](CCCCN)NC(=O)[C@H](CSSC[C@H](NC(=O)[C@H]([C@@H](C)O)NC(=O)[C@H](Cc4c[nH]c5ccccc45)NC(=O)[C@H](CCCC)NC(=O)[C@H](Cc4c[nH]c5ccccc45)NC(=O)[C@H](CCCCN)NC(=O)[C@H](CCC(N)=O)NC1=O)C(=O)N[C@@H](CC(=O)O)C(=O)N[C@@H](CO)C(=O)N[C@@H](CCCCN)C(=O)N[C@@H](CCCNC(=N)N)C(=O)N[C@@H](C)C(=O)N3)NC(=O)[C@H](Cc1ccc(O)cc1)NC(=O)[C@H](CC(C)C)NC(=O)CNC(=O)[C@H](CCC(=O)O)NC2=O` [compound 682]: the pIC50 was 8.22.

Turning to `C#CC[C@H](N)C(=O)N[C@@H](Cc1ccc(O)cc1)C(=O)N[C@H]1CSSC[C@@H]2NC(=O)[C@@H]3CSSC[C@@H](C(=O)N[C@@H](CCCNC(=N)N)C(=O)N[C@@H](CCCCN)C(=O)N[C@@H](CCC(=O)O)C(=O)N[C@H](C(N)=O)[C@@H](C)CC)NC(=O)[C@H](Cc4c[nH]c5ccccc45)NC(=O)[C@H](CC(C)C)NC(=O)[C@H](CCCCN)NC(=O)[C@H](CSSC[C@H](NC(=O)[C@H]([C@@H](C)O)NC(=O)[C@H](Cc4c[nH]c5ccccc45)NC(=O)[C@H](CCCC)NC(=O)[C@H](Cc4c[nH]c5ccccc45)NC(=O)[C@H](CCCCN)NC(=O)[C@H](CCC(N)=O)NC1=O)C(=O)N[C@@H](CC(=O)O)C(=O)N[C@@H](CO)C(=O)N[C@@H](CCCCN)C(=O)N[C@@H](CCCNC(=N)N)C(=O)N[C@@H](C)C(=O)N3)NC(=O)[C@H](Cc1ccccc1)NC(=O)[C@H](CC(C)C)NC(=O)CNC(=O)[C@H](CCC(=O)O)NC2=O` [compound 686], the negative-log IC50 (pIC50) is 7.99.

With `C#CC[C@H](N)C(=O)N[C@@H](Cc1ccc(O)cc1)C(=O)N[C@H]1CSSC[C@@H]2NC(=O)[C@@H]3CSSC[C@@H](C(=O)N[C@@H](CCCNC(=N)N)C(=O)N[C@@H](CCCCN)C(=O)N[C@@H](CCC(=O)O)C(=O)N[C@H](C(N)=O)[C@@H](C)CC)NC(=O)[C@H](Cc4c[nH]c5ccccc45)NC(=O)[C@H](CC(C)C)NC(=O)[C@H](CCCCN)NC(=O)[C@H](CSSC[C@H](NC(=O)[C@H]([C@@H](C)O)NC(=O)[C@H](Cc4c[nH]c5ccccc45)NC(=O)[C@H](CCCC)NC(=O)[C@H](Cc4c[nH]c5ccccc45)NC(=O)[C@H](CCCCN)NC(=O)[C@H](CCC(N)=O)NC1=O)C(=O)N[C@@H](CC(=O)O)C(=O)N[C@@H](CO)C(=O)N[C@@H](CCCCN)C(=O)N[C@@H](CCCNC(=N)N)C(=O)N[C@@H](C)C(=O)N3)NC(=O)[C@H](CCCNC(=N)N)NC(=O)[C@H](C)NC(=O)CNC(=O)[C@H](CCC(=O)O)NC2=O` [compound 703], the pIC50 was less than 6.00.

With `C#CC[C@H](N)C(=O)N[C@@H](Cc1ccc(O)cc1)C(=O)N[C@H]1CSSC[C@@H]2NC(=O)[C@@H]3CSSC[C@@H](C(=O)N[C@@H](CCCNC(=N)N)C(=O)N[C@@H](CCCCN)C(=O)N[C@@H](CCC(=O)O)C(=O)N[C@H](C(N)=O)[C@@H](C)CC)NC(=O)[C@H](Cc4c[nH]c5ccccc45)NC(=O)[C@H](CC(C)C)NC(=O)[C@H](CCCCN)NC(=O)[C@H](CSSC[C@H](NC(=O)[C@H]([C@@H](C)O)NC(=O)[C@H](Cc4c[nH]c5ccccc45)NC(=O)[C@H](CCCC)NC(=O)[C@H](Cc4c[nH]c5ccccc45)NC(=O)[C@H](CCCCN)NC(=O)[C@H](CCC(N)=O)NC1=O)C(=O)N[C@@H](CC(=O)O)C(=O)N[C@@H](CO)C(=O)N[C@@H](CCCCN)C(=O)N[C@@H](CCCNC(=N)N)C(=O)N[C@@H](C)C(=O)N3)NC(=O)[C@H](CCCNC(=N)N)NC(=O)[C@H](CCCCN)NC(=O)CNC(=O)[C@H](CCC(=O)O)NC2=O` [compound 704], the negative logarithm of the IC50 (pIC50) is less than 6.00.

Staying with this experiment, now noted: ratio of PX tonic IC50 values; Table 11.
On to `CCCC[C@@H]1NC(=O)[C@H](Cc2c[nH]c3ccccc23)NC(=O)[C@H](CCCCN)NC(=O)[C@H](CCC(N)=O)NC(=O)[C@@H](NC(=O)[C@H](CCCCNC(=O)CCOCCOCCOCCOCCOCCOCCOCCOCCOCCOCCOCCOCCN)NC(=O)[C@@H](N)CC#N)CSSC[C@@H]2NC(=O)[C@@H]3CSSC[C@@H](C(=O)N[C@@H](CCCNC(=N)N)C(=O)N[C@@H](CCCCN)C(=O)N[C@@H](CCC(=O)O)C(=O)N[C@H](C(N)=O)[C@@H](C)CC)NC(=O)[C@H](Cc4c[nH]c5ccccc45)NC(=O)[C@H](CC(C)C)NC(=O)[C@H](CCCCN)NC(=O)[C@H](CSSC[C@H](NC(=O)[C@H]([C@@H](C)O)NC(=O)[C@H](Cc4c[nH]c5ccccc45)NC1=O)C(=O)N[C@@H](CC(=O)O)C(=O)N[C@@H](CO)C(=O)N[C@@H](CCCCN)C(=O)N[C@@H](CCCNC(=N)N)C(=O)N[C@@H](C)C(=O)N3)NC(=O)[C@H](CCCNC(=N)N)NC(=O)[C@H](CC(C)C)NC(=O)CNC(=O)[C@H](CCC(=O)O)NC2=O` [compound 563], for which the Nav1.4/Nav1.7 worked out at 126.

On to `CCCC[C@@H]1NC(=O)[C@H](Cc2c[nH]c3ccccc23)NC(=O)[C@H](CCCCN)NC(=O)[C@H](CCC(N)=O)NC(=O)[C@@H](NC(=O)[C@H](Cc2ccc(O)cc2)NC(=O)[C@@H](N)CC#N)CSSC[C@@H]2NC(=O)[C@@H]3CSSC[C@@H](C(=O)N[C@@H](CCCNC(=N)N)C(=O)N[C@@H](CCCCN)C(=O)N[C@@H](CCC(=O)O)C(=O)N[C@H](C(N)=O)[C@@H](C)CC)NC(=O)[C@H](Cc4c[nH]c5ccccc45)NC(=O)[C@H](CC(C)C)NC(=O)[C@H](CCCCN)NC(=O)[C@H](CSSC[C@H](NC(=O)[C@H]([C@@H](C)O)NC(=O)[C@H](Cc4c[nH]c5ccccc45)NC1=O)C(=O)N[C@@H](CC(=O)O)C(=O)N[C@@H](CCCCNC(=O)CCOCCOCCOCCOCCOCCOCCOCCOCCOCCOCCOCCOCCN)C(=O)N[C@@H](CCCCN)C(=O)N[C@@H](CCCNC(=N)N)C(=O)N[C@@H](C)C(=O)N3)NC(=O)[C@H](CCCNC(=N)N)NC(=O)[C@H](CC(C)C)NC(=O)CNC(=O)[C@H](CCC(=O)O)NC2=O` [compound 565], for which the Nav1.4/Nav1.7 was found to be 75.

On to `CCCC[C@@H]1NC(=O)[C@H](Cc2c[nH]c3ccccc23)NC(=O)[C@H](CCCCN)NC(=O)[C@H](CCC(N)=O)NC(=O)[C@@H](NC(=O)[C@H](Cc2ccc(O)cc2)NC(=O)[C@@H](N)CC#N)CSSC[C@@H]2NC(=O)[C@@H]3CSSC[C@@H](C(=O)N[C@@H](CCCNC(=N)N)C(=O)N[C@@H](CCCCN)C(=O)N[C@@H](CCC(=O)O)C(=O)N[C@H](C(N)=O)[C@@H](C)CC)NC(=O)[C@H](Cc4c[nH]c5ccccc45)NC(=O)[C@H](CC(C)C)NC(=O)[C@H](CCCCN)NC(=O)[C@H](CSSC[C@H](NC(=O)[C@H]([C@@H](C)O)NC(=O)[C@H](Cc4c[nH]c5ccccc45)NC1=O)C(=O)N[C@@H](CC(=O)O)C(=O)N[C@@H](CO)C(=O)N[C@@H](CCCCNC(=O)CCOCCOCCOCCOCCOCCOCCOCCOCCOCCOCCOCCOCCN)C(=O)N[C@@H](CCCNC(=N)N)C(=O)N[C@@H](C)C(=O)N3)NC(=O)[C@H](CCCNC(=N)N)NC(=O)[C@H](CC(C)C)NC(=O)CNC(=O)[C@H](CCC(=O)O)NC2=O` [compound 566], for which the Nav1.4/Nav1.7 is 103.

These data come from US10344060B2 (priority 2013, dated 2019).
